Results as given in US11226337B2, “Chemoproteomic profiling of protein electrophilic and oxidative post-translational modifications” (Zenagem, LLC, priority 2017, dated 2022).

Key:
Experiment in all cases: SILAC RP-ABPP
Type in all cases: cell-based
Settings in all cases: SILAC H/L
[1] = target: T1, CTSC Dipeptidyl peptidase 1 (P53634) (Homo sapiens, UniProt P53634)
T1 construct: In Situ Labelling of Cells with Hydrazine Probes for MS Experiments; endogenous in cells; host or cells: HEK293T and/or MDA-MB-231
Experimental: (§1) For MS-based experiments, labelling was performed in a similar manner as described above in Example 2, maintaining the same concentrations of probes. Modifications to this protocol included using isotopically ‘light’ and ‘heavy’ SILAC cells that were also grown to near complete confluence prior to treatment. Isotopically light cells were treated with the non-clickable hydrazine probe (at the same concentration as the probe in ‘enrichment’ experiments) or the probe in the presence of 10-fold excess non-clickable hydrazine probe as a competitor (in ‘competition’ experiments). Isotopically heavy cells were treated with the probe for both types of experiments. These treatments were performed in non-SILAC media. Following treatments, cells were washed with cold PBS to remove the probe-containing media, harvested by scraping, collected by centrifugation (1,400 g, 3 min, 4° C.), washed again by resuspension in cold PBS and frozen as pellets at −80° C. until use.
(§2) The fractionated equimolar mixture of heavy and light soluble proteomes (1-1.5 mg) was diluted to 1 mL in PBS. Click reactions were scaled accordingly (except for biotin-azide) to maintain final concentrations of 0.1 mM TBTA, 1 mM CuSO4, 100 μM biotin-azide (10 mM in DMSO) and 1 mM TCEP. The mixture was vortexed and placed on a rotator at ambient temperature for 1 hour. Sequential addition of and mixture with pre-chilled methanol (MeOH, 2 mL), chloroform (CHCl3, 0.5 mL) and PBS (1 mL) on ice quenched the reaction. The precipitated proteome was centrifuged (5,000 g, 10 min, 4° C.) to fractionate the protein interphase from the organic and aqueous solvent layers. The protein pellet was washed with cold 1:1 MeOH:CHCl3 (3×1 mL), mildly sonicated in cold 4:1 MeOH:CHCl3 (2.5 mL) and pelleted once more by centrifugation (5,000 g, 10 min, 4° C.) to ensure click reagents were efficiently removed.
(§3) Heavy and light parent ion chromatograms associated with successfully identified peptides were extracted and compared using CIMAGE software as previously described^69. At least one ion of a co-eluting heavy-light pair must be accurately identified from a fragmentation event that occurred within the retention time window (±10 min) of parent ion elution. To ensure that the correct pair of peaks is quantified, chromatograms are extracted within a 10 ppm error tolerance of the predicted m/z, the signal-to-noise ratio must be >2.5 and the ‘co-elution correlation score’ and ‘envelope correlation score’ must have R^2 values ≥0.8. In addition, peptides detected as ‘singletons,’ where only the heavy ion of a peptide pair was identified, but for which passed all other filtering parameters, are given a default assigned ratio of ‘20,’ which is defined as any measured ratio that is ≥20.
(§4) To further eliminate false positives and any stochastic variability in the data, protein ratios were then determined by the median peptide ratio derived from three or more unique quantified peptides. Protein ratios that complied with these criteria from a single experiment were then averaged with ratios acquired from ≥3 replicates to provide final values for each type of experiment in both cell lines with both probes. […] Most importantly, there are no robustly measured ratios for proteins identified as probe 1 targets that had measured ratios of ˜1 with probe 2. Probe targets in HEK293T and MDA-MB-231 cells represent data combined from ≥3 independent biological replicates with each cell type performed with several independent batches of synthesized probes over a period of almost two years.
(§5) Analogous experiments were also performed with the aryl hydrazine probe 2 (1 mM, 0.5 hour), which furnished a larger list of high-reactivity proteins (33 in total; Table 3) that contained several of the targets of probe 1 (compared in Table 4), as well as additional proteins that may reflect an expanded chemical reactivity for probe 2.

[2] = target: T2, CTSA Lysosomal protective protein (P10619) (Homo sapiens, UniProt P10619)
T2 construct: In Situ Labelling of Cells with Hydrazine Probes for MS Experiments; endogenous in cells; host or cells: HEK293T and/or MDA-MB-231
T2 sequence (P10619 29-480): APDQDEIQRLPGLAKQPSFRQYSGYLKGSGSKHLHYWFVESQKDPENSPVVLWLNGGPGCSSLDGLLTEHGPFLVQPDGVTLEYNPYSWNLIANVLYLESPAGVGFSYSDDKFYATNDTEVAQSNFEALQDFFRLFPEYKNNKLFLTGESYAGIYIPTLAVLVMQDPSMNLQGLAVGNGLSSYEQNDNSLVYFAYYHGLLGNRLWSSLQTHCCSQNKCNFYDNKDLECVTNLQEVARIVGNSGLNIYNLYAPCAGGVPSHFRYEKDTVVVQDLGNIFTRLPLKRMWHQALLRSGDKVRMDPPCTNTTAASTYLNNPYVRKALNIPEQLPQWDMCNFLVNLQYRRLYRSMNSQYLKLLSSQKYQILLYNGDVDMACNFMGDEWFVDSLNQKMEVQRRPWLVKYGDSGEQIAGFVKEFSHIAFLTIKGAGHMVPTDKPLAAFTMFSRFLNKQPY
Experimental: as §1, §2, §3, §4, §5

[3] = target: T3, PPT1 Palmitoylprotein thioesterase 1 (P50897) (Homo sapiens, UniProt P50897)
T3 construct: In Situ Labelling of Cells with Hydrazine Probes for MS Experiments; endogenous in cells; host or cells: HEK293T and/or MDA-MB-231
T3 sequence (P50897 28-306): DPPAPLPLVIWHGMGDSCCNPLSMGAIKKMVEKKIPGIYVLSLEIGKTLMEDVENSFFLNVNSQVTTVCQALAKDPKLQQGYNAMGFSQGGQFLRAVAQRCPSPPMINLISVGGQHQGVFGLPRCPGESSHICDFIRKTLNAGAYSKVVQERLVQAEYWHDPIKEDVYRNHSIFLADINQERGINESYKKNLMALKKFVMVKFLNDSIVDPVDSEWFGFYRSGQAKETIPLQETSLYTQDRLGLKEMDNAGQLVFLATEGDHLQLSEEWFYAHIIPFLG
Experimental: as §1, §2, §3, §4, §5

[4] = target: T4, FTH1 Ferritin heavy chain (P02794) (Homo sapiens, UniProt P02794)
T4 construct: In Situ Labelling of Cells with Hydrazine Probes for MS Experiments; endogenous in cells; host or cells: HEK293T and/or MDA-MB-231
Experimental: as §1, §2, §3, §4, §5

[5] = target: T5, FTO Alphaketoglutaratedependent dioxygenase (Q9C0B1) (Homo sapiens, UniProt Q9C0B1)
T5 construct: In Situ Labelling of Cells with Hydrazine Probes for MS Experiments; endogenous in cells; host or cells: HEK293T and/or MDA-MB-231
Experimental: as §1, §2, §3, §4, §5

[6] = probe 2 1 mM 0.5 h vs probe 4, MDA-MB-231
[7] = probe 2 vs probe 2+10x probe 4, MDA-MB-231
[8] = probe 1 vs probe 1+10x probe 3, cell line not given
[9] = probe 1 3 mM 0.5 h vs probe 3, cell line not given

Row | enrichment ratioavg [1, 6] | competition ratioavg [1, 7] | enrichment ratioavg [2, 6] | competition ratioavg [2, 7] | enrichment ratioavg [3, 6] | competition ratioavg [3, 7] | enrichment ratioavg [4, 6] | competition ratioavg [4, 7] | enrichment ratioavg ([5]; probe 2 1 mM 0.5 h vs probe 4, HEK293T) | competition ratioavg ([5]; probe 2 vs probe 2+10x probe 4, HEK293T) | Structure (SMILES) | competition ratioavg [1, 8] | enrichment ratioavg [2, 9] | competition ratioavg [2, 8] | competition ratioavg [3, 8] | enrichment ratioavg [4, 9] | competition ratioavg [4, 8] | competition ratioavg [5, 8]
1 | 20 | 9 | 9 | 4 | 20 | 5 | 20 | 5 | 13 | 5 | C#CCCNC(=O)c1ccc(NN)cc1.Cl [probe 2, N-(but-3-yn-1-yl)-4-hydrazinylbenzamide hydrochloride] | – | – | – | – | – | – | –
2 | – | – | – | – | – | – | – | – | – | – | C#CCNN.Cl [probe 1, prop-2-yn-1-ylhydrazine hydrochloride] | 3 | 4 | 4 | 5 | 1 | 1 | 1
